One data set addresses HIV-RT (Human immunodeficiency virus type 1 group M subtype B, UniProt P04585). Description: DNA chain termination by sequencing analysis. Format: biochemical. The procedure: (§1) Toxicity and pharmacokinetic studies confirm the usefulness of FTC as an antiviral agent for pharmaceutical administration. FTC and its enantiomers are nontoxic to peripheral human bone marrow cells at concentrations up to 50 µM and other cell lines at concentrations up to 200 µM. FTC-TP is a major intracellular metabolite in PBMC and HepG2 cells.

Data set [1] deals with HIV-1 reverse transcriptase (RT). Description: Competitive inhibition of HIV-1 reverse transcriptase, poly(I)oligo(dC) template-primer. It is filed as biochemical. The following applies: read-out: K1 (affinity), competitive inhibition. The procedure: as §1
Data set [2] concerns human PBM cells. Description: Egress of radiolabeled FTC from human PBM cells. Format: in vitro ADME. The following applies: 48 hours after the removal of the extracellular drug. The procedure:
This study measures the time needed for intracellular levels of triphosphates to decline. Studies were conducted in duplicate. Uninfected cells (2 x 10^6 ml) were suspended in the appropriate medium supplemented with serum (10 ml per timepoint) and incubated at 37°C in a 5% CO2 incubator. The radiolabeled FTC concentration was 10 µM. After pulsing the cells with the labeled compound for 24 hours, the cells were thoroughly washed and then replenished with fresh medium without the antiviral drugs (0 hr). At 0, 2, 4, 6, 12, 24, and 48 hours (second incubation time), the cells were removed, and immediately extracted with 60% cold methanol/water. The extract was obtained by centrifugation and removal of the cell pellet. The extracts were lyophilized and then stored at -70°C. Prior to analysis, the material was resuspended in 250 microliters of HPLC buffer and immediately analyzed. Quantitation of intracellular parent drug and metabolic derivatives was conducted by HPLC, using either a Micromeritics or Hewlett-Packard model 1090 PHLC system with an anion exchange Partisel 10 SAX column (Whatman, Inc.), at a flow rate of 1 ml/min, 1 kpsi pressure, with UV detection at 262 nm. The mobile phase consisted of deionized water (A), 2 mM NaH2PO4/16 mM NaOAc (pH = 6.6) (B), 15 mM NaH2PO4/120.2 mM NaOAc (pH = 6.6) (C), and 100 mM NaH2PO4/800 mM NaOAc (pH = 6.6) (D). […]

Data set [3] in a line: in vitro. The following applies: human, cem cells.
Data set [4] in a line: in vivo. The following applies: rat, plasma, iv.
The nature of data set [5]: Growth inhibition of mitogen-stimulated uninfected human PBM cells, trypan blue exclusion. Format: cell-based. The following applies: human, pbm cells.
Data set [6] is described as follows: in vivo. The following applies: rhesus monkey, 33.3 mg/kg; for clearance: CLT, I.V. 33.3 mg/kg.
The nature of data set [7]: Chronic oral treatment of rodents, toxicity. It is filed as in vivo. The following applies: oral doses of 85 mg/kg per day for at least two months.
A further data set relates to HIV-2. Description: microbe, parasite or virus in culture. The following applies: Human immunodeficiency virus 2, PBMC. The procedure:
(§2) Cell lines were obtained from either human donors, AIDS Research and Reference Reagent Program, NIH, Rockville, Maryland, ATCC, or the Red Cross. The CEM thymidine kinase deficient cells were prepared by sequential passage of CEM cells in the presence of 5-bromo-2'-deoxyuridine.

Another data set relates to SIV. Description: microbe, parasite or virus in culture. The following applies: Simian immunodeficiency virus. The procedure:
as §2

The subject of a further data set is FIV. Description: microbe, parasite or virus in culture. The following applies: Feline immunodeficiency virus, CRFK. The procedure: as §2
The test system of the next data set is HIV-1. In words: microbe, parasite or virus in culture. The procedure:
as §2

Data set [8] in a line: in vitro. The following applies: african green monkey, vero cells.
A further data set has as its system HIV-1 (strain LAV). Description: microbe, parasite or virus in culture. Format: cell-based. The following applies: Human immunodeficiency virus 1, PBMC. The text has this:
It is often desirable to screen a number of racemic mixtures of nucleosides as a preliminary step to determine which warrant further resolution into enantiomerically enriched components and further evaluation of antiviral activity. The ability of nucleosides to inhibit HIV can be measured by various experimental techniques. The technique used herein, and described in detail below, measures the inhibition of viral replication in phytohemagglutinin (PHA) stimulated human peripheral blood mononuclear (PBM) cells infected with HIV-1 (strain LAV). The amount of virus produced is determined by measuring the virus-coded reverse transcriptase enzyme. The amount of enzyme produced is proportional to the amount of virus produced.
• A. Three-day-old phytohemagglutinin-stimulated PBM cells (10^6 cells/ml) from hepatitis B and HIV-1 seronegative healthy donors were infected with HIV-1 (strain LAV) at a concentration of about 100 times the 50% tissue culture infectious dose (TICD 50) per ml and cultured in the presence and absence of various concentrations of antiviral compounds. • B. Approximately one hour after infection, the medium, with the compound to be tested (2 times the final concentration in medium) or without compound, was added to the flasks (5 ml; final volume 10 ml). AZT was used as a positive control. • C. The cells were exposed to the virus (about 2 x 10^5 dpm/ml, as determined by reverse transcriptase assay) and then placed in a CO2 incubator. HIV-1 (strain LAV) was obtained from the Center for Disease Control, Atlanta, Georgia. The methods used for culturing the PBM cells, harvesting the virus and determining the reverse transcriptase activity were those described by McDougal et al. (J. Immun. Meth. 76, 171-183, 1985) and Spira et al. (J. Clin. Meth. 25, 97-99, 1987), except that fungizone was not included in the medium (see Schinazi, et al., Antimicrob. Agents Chemother. 32, 1784-1787 (1988); Id., 34:1061-1067 (1990)). • D. On day 6, the cells and supernatant were transferred to a 15 ml tube and centrifuged at about 900 g for 10 minutes. Five ml of supernatant were removed and the virus was concentrated by centrifugation at 40,000 rpm for 30 minutes (Beckman 70.1 Ti rotor). The solubilized virus pellet was processed for determination of the levels of reverse transcriptase. Results are expressed in dpm/ml of sampled supernatant. Virus from smaller volumes of supernatant (1 ml) can also be concentrated by centrifugation prior to solubilization and determination of reverse transcriptase levels.

For data set [9], the system named is peripheral human bone marrow cells. In words: Toxicity to peripheral human bone marrow cells. Format: cell-based. The following applies: concentrations up to 50 µM.
Another data set has as its system HIV. Description: microbe, parasite or virus in culture. Format: cell-based. The following applies: Human immunodeficiency virus 1.
The subject of the next data set is other cell lines. In words: Toxicity to other cell lines. It is filed as cell-based. The following applies: concentrations up to 200 µM.
For data set [10], the system named is human PBM cells. Description: Uptake of radiolabeled FTC into human PBM cells. The following applies: 10 µM radiolabeled FTC, 2 to 24 hours; Figure 7. It is filed as in vitro ADME. The procedure:
All studies were conducted in duplicate.

The values below come from patent publication EP1439177B1, “Antiviral activity and resolution of 2-hydroxymethyl-5-(5-fluorocytosin-1-yl)-1,3-oxathiolane” (Emory University, priority 1991, dated 1992).

Where two headings read alike, the source gives them in different places.

For `Nc1nc(=O)n([C@@H]2CS[C@H](COP(=O)(O)OP(=O)(O)OP(=O)(O)O)O2)cc1F` (racemic) [FTC-TP], the “DNA chain terminator (C-stops)” value on HIV-RT is on record as “potent DNA chain terminator”. Also, the Ki in data set [1] came to 0.2 µM. The compound also came in with an intracellular concentration with human PBM cells [2] of 1 to 5 µM.
On to `Nc1nc(=O)n([C@@H]2CS[C@H](CO)O2)cc1F` (racemic) [(±)-FTC, (±)-β-D.L-2-hydroxymethyl-5-(5-fluorocytosin-1-yl)-1,3-oxathiolane], for which the CC50 in “in vitro [3]” and in the data set “in vitro [8]” was above 100 µM throughout. Further, the clearance (in general, the rate of elimination divided by the concentration) was 0.988 L/h/kg in the data set “in vivo [4]” (10 mg/kg); 0.874 L/h/kg in “in vivo [4]” (50 mg/kg); 0.83 L/h/kg in “in vivo [4]” (100 mg/kg); 1.49 L/h/kg in the data set “in vivo [6]” (iv, Mean of three monkeys); 1.74 L/h/kg in “in vivo [6]” (iv, individual monkeys RUh, RMi, RJd). Further, the half-life – broadly, how long it takes for the measured level to halve – in the data set “in vivo [4]” (10 mg/kg) is 45.4 min; in the data set “in vivo [4]” (50 mg/kg), 48.9 min; in the data set “in vivo [4]” (100 mg/kg) it was 58.1 min. Also, the MRT – broadly, a mean duration of stay, worked out from the concentration-time curve – in the data set “in vivo [4]” (50 mg/kg) stood at 48 min. Moreover, the CC50 (commonly the concentration that lowers cell viability or growth by half) at 144 h in data set [5] was above 100 µM. The volume of distribution (Vd) (usually a proportionality between amount in the body and measured concentration, not a real space) in the data set “in vivo [6]” (iv) is 2 L/kg. Moreover, the bioavailability (in general, the share of a dose that reaches the circulation, judged against a reference dose that is usually intravenous) in the data set “in vivo [6]” (po, F (bioavailability), P.O. 33.3 mg/kg, individual monkeys RUh, RMi, RJd) is 80%. The “toxicity of chronic treatment” value in data set [7] is “not toxic”. The EC50 in the data set on HIV-2 is 0.0038 µM; with SIV, 4.6 µM; in the data set with SIV (C8166), below 8 µM; with FIV, at most 1 µM; in the data set with HIV-1 (Human immunodeficiency virus 1, CEM (HTLV1118) NIH), 0.09 µM; in the data set on HIV-1 (Human immunodeficiency virus 1, CEM (LAV-1)) it was 0.08 µM. The EC50 in the data set on HIV-1 (Human immunodeficiency virus 1, CEM-TK(-), CEM-TK^(-) (LAV-1)) is 0.026 µM; in the data set on HIV-1 (Human immunodeficiency virus 1, MT2 (HTLV1118)), 0.89 µM; in the data set with HIV-1 (Human immunodeficiency virus 1, PBMC, PBMC (LAV-1)), 0.027 µM; in the data set with HIV-1 (strain LAV) (read-out: Antiviral EC50), 0.01 µM; in the data set on HIV-1 (strain LAV) (read-out: activity in PBM cells), around 0.01 µM. Further, the toxicity result (in [9]; in the data set with other cell lines) was “nontoxic” throughout. Also, in the data set on HIV, half-maximal inhibition (IC50) required 0.52 µM. Moreover, in the data set on human PBM cells [10], the “uptake in human lymphocytes” value is “readily taken up”.
